Measured values: patent US20240115564A1, “HTR1F ANTAGONISTS FOR IMPROVEMENT OF BETA CELL SURVIVAL AND FUNCTION” (The Regents of the University of California, priority 2021, published 2024)

Legend:
[1] = target: other serotonin family GPCRs and adrenergic receptors; details: cited from earlier work
[2] = system: primary human islet cell; experiment: Sytox Green cell death assay in dissociated human islets treated with HTR1F agonist; type: cell-based; details: 24 hours, two independent donors
Experimental: Dissociated human islets were treated with the indicated doses of LY344864 for 24 hours. Dead cells were monitored by Sytox Green. The number of Sytox Green nuclei were normalized to cell density measured by bright field imaging. n=4 biological replicates for each donor. *p<0.05, **p<0.01 by post-hoc Student's t-test after one-way ANOVA versus vehicle treatment.
(§1) Human beta cell death and proliferation: Islets were dissociated and plated on 804G coated plates as done for the screens. For Sytox Green assays, islets were plated into 96 well plates and Sytox Green (Thermo) was added to the media (30 nM) and green fluorescence and bright field images were captured at 24 hours during culture (Incucyte). The number of green nuclei normalized to the cell density (calculated by brightfield image) was measured in biological triplicate (FIG. 2A). For FIG. 3C, dead nuclei were normalized to total nuclei as measured after treatment of the cells with 0.0625% Triton X-100. For the in vitro TUNEL assay (FIG. 2B and FIG. 2C), cells were fixed in 4% paraformaldehyde in calcium/magnesium free PBS for 15 minutes at room temperature, permeabilized with 0.1% Triton X-100 for 1 hour, blocked with 10% donkey serum in PBS for 1 hour at room temperature, and stained with guinea pig anti-insulin antibody (Agilent) overnight at 4 degrees. […]

[3] = target: other HTR1 receptors; details: cited from earlier work
[4] = system: primary human beta cells; experiment: TUNEL / insulin staining of dissociated human islets (beta cell death); type: cell-based; details: at 10 nM, 24 hours, 4 donors
Experimental: A representative image is shown. White arrows represent cells that are TUNEL+ insulin+ cells. Scale bar is 25 μM.
Given differences in baseline cell death between donors, the fold increase in the fraction of TUNEL+ beta cells over vehicle control is plotted. Standard error is shown, n=4 donors with at least 400 beta cells counted for each donor. *p<0.05, one-way ANOVA, post-hoc tested against vehicle.
as §1

[5] = target: T1, HTR1F (Homo sapiens, UniProt P30939); details: read-out: reported EC50; cited from earlier work
T1 sequence (P30939 1-366): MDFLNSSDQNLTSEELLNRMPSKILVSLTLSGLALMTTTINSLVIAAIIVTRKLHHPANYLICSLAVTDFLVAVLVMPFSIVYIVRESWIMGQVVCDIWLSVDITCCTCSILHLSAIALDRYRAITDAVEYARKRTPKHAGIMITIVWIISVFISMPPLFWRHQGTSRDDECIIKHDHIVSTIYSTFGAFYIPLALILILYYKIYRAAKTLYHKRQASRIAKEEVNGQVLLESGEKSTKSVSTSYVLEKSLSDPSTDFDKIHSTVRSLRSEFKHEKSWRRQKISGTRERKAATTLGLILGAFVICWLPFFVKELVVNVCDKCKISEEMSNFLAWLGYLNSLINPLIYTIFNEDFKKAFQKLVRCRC

[6] = target: T1, HTR1F; experiment: Glosensor cAMP assay in 293T cells transfected with HTR1F cDNA; type: cell-based; design: from tissue; host or cells: primary human islets from cadaveric donors, transplanted under the kidney capsule of scid-beige mice; details: 10 minutes pre-treatment, serotonin 5 nM then forskolin
Experimental: 293T cells were transiently transfected with the Glosensor plasmid (Promega) and the HTR1F cDNA. The cells were pre-treated with 1-(2-hydroxy-3-(naphthalen-2-yloxy)propyl)-4-(quinolin-3-yl)piperidin-4-ol at the concentrations shown in FIG. 4 for 10 minutes, then with serotonin (5 nM), and then forskolin and luminescence was determined. n=5, error bars show standard error. […] N=5 per concentration.

[7] = system: human islets; experiment: Glucose-stimulated insulin release in human islets; type: cell-based; details: 150 nM, 11 mM glucose, 9 human islet donors, vs DMSO
Experimental: Human islets were rested for 24 hours after receipt in CMRL 1066 (Media Tech) supplemented with penicillin and streptomycin, B27 supplement, Glutamax (Thermo), and non-essential amino acids (Thermo). For both the test treatment group and the control treatment group, 40-60 islets for each of the 5 replicates were hand-picked. The islets were equilibrated for two hours at 37° C. in Kreb-Ringer Bicarbonate HEPES Buffer pH 7.4 (KRBH; 137 mM NaCl, 4.7 mM KCl, 1.2 mM KH2PO4, 1.2 mM MgSO4, 2.5 mM CaCl2), 25 mM NaHCO3, 20 mM HEPES, 2.8 mM glucose, and 0.25% BSA). Equilibration buffer was then removed and islets were incubated at 37° C. with KRBH pH 7.4 with 2.8 mM glucose and 0.25% BSA and were treated with DMSO or 150 nM HTR1F antagonist 1-(2-hydroxy-3-(naphthalen-2-yloxy)propyl)-4-(quinolin-3-yl)piperidin-4-ol. After 1 hour, islet secretion was collected and islets were treated with KRBH pH 7.4 containing 11 mM glucose and 0.25% BSA and were treated with DMSO or 150 nM antagonist at 37° C. for another hour. Following incubation, islet secretions were collected and the islets were lysed in RIPA buffer to determine the total islet insulin content. Islet secretions were diluted 2-5 fold for analysis with the Mercodia insulin ELISA kit and lysates were diluted 200-500 fold for analysis. […]

[8] = system: MIN6 cells transfected with GFP-T2A-HTR1F; experiment: MIN6 cell death after HTR1F expression (propidium iodide); type: cell-based, mouse; details: 200 ng/mL pre-incubation, 32-40 hours after transfection
Experimental: GFP+ cells were assessed for cell death by propidium iodide staining 32-40 hours after transfection. […] Significant post-hoc Holm adjusted Student's t-test comparisons are shown. n=33 for each group conducted over 3 independent experiments. Taken together, FIGS. 2A-2D illustrate the induction of primary human beta cell death by HTR1F signaling.
MIN6 cell death: The human HTR1F cDNA was cloned from 293T cDNA and cloned downstream of a CMV promoter GFP-T2A expression vector with the addition of a viral signal sequence and FLAG epitope tag as previously described. The sequence was confirmed by Sanger sequencing. 10,000 MIN6 cells were plated in a 96-well plate. The following day, the cells were transfected with either the parental GFP-T2A expression vector or GFP-T2A-HTR1F using Lipofectamine 2000 (Thermo Fisher). Six hours after transfection, the media was changed to one containing propidium iodide (Thermo Fisher) at 0.3 ug/mL. The percentage of GFP+ cells that were also PI+ was measured by automated fluorescence microscopy (IncuCyte, Essen Biosciences) at 32-40 hours after transfection. For pertussis toxin (Enzo), cells were treated with 200 ng/mL during cell plating and during transfection.

[9] = system: dissociated human islets; experiment: Sytox Green cell death in dissociated human islets with thapsigargan and methysergide; type: cell-based; details: 48 hours
Experimental: Each graph is from an independent donor. *p<0.05 for thapsigargan and for the interaction between methysergide and thapsigargan by 2-way ANOVA. Standard error is shown.
as §1, with “degrees. Secondary antibody was anti-guinea pig 488 (Thermo) at 1:300 for 1 hour at room temperature. For TUNEL staining, In Situ Death Detection Kit, TMR red (Roche) was used per the manufacturer's protocol in combination with insulin staining as above.” for “degrees.”

[10] = cited from earlier work
[11] = target: T1, HTR1F; details: cited from earlier work
[12] = system: scd beige mice receiving human islets; experiment: Minimal (marginal mass) human islet transplant model with methysergide; type: in vivo, mouse; details: islets 300 nM 24 hours; mice 10 mg/kg daily peri-transplant, 5 days; p<0.05 log-rank
Experimental: Taken together, FIGS. 3A-3D illustrate the prevention of human beta cell death by blocking of HTR1F signaling.
Minimal human islet transplant model with methysergide: Human islets were treated with 300 nM methysergide maleate or vehicle for 24 hours after isolation. Seven-hundred IEq were then transplanted under the kidney capsule of scd beige mice. Four hours prior to transplant, recipient mice were injected with either 10 mg/kg methysergide maleate or vehicle. After transplant, mice were injected every 24 hours with 10 mg/kg methysergide or vehicle for 5 days. After 48 hours without methysergide treatment to allow washout of the drug, streptozotocin (250 mg/kg) was injected into the peritoneal space with 1 mL of normal saline injected subcutaneously for hydration. […] Blood glucose was assessed by glucometer (Freestyle Lite) after a 6 hour fast (9 am-3 pm). […]
To ask if improved human beta cell survival due to HTR1F inhibition could improve glycemia after transplant, human islets were treated with methysergide or vehicle and then a marginal mass of islets was transplanted into mice. […] After 2 days to allow for methysergide clearance, the endogenous mouse beta cells were destroyed using streptozotocin and monitored for diabetes development. […]

CN(C)[C@@H]1CCc2[nH]c3ccc(NC(=O)c4ccc(F)cc4)cc3c2C1 [LY344864]
Ki [1]: 1500 to 5000 nM | primary human islet cell death (Sytox Green) [2]: increase primary human islet cell death | Ki [3]: > 500 nM | beta cell death (TUNEL+ insulin+ cells) [4]: increase beta cell death | EC50 [5]: 3 nM

OC(COc1ccc2ccccc2c1)CN1CCC(O)(c2cnc3ccccc3c2)CC1 (centres unmarked) [1-(2-hydroxy-3-(naphthalen-2-yloxy)propyl)-4-(quinolin-3-yl)piperidin-4-ol]
inhibition of HTR1F (cAMP luminescence) [6]: inhibition of HTR1F | increase in insulin secretion at high glucose concentration [7]: 40%

pertussis toxin
effect on HTR1F-induced cell death [8]: blocked

CC[C@@H](CO)NC(=O)[C@@H]1C=C2c3cccc4c3c(cn4C)C[C@H]2N(C)C1 [methysergide, (6aR,9R)—N—((S)-1-hydroxybutan-2-yl)-4,7-dimethyl-4,6,6a,7,8,9-hexahydroindolo[4,3-fg]quinoline-9-carboxamide]
effect on death triggered by thapsigargan ([9]; 30 nM methysergide with 10 μM thapsigargan): prevent death | effect of methysergide alone on islet cell death ([9]; 30 nM, dissociated cultures): no effect | risk during chronic treatment ([10]; chronic treatment): risk of retroperitoneal fibrosis | insulin secretion in humans ([10]; humans): increase insulin secretion | inhibition of HTR1F [11]: potently inhibit | diabetes-free survival / development of diabetes after streptozotocin [12]: protect mice from the development of diabetes
